Test [1] has as its target WDR5 (Homo sapiens (Human), UniProt P61964). The test is described as follows: TR-FRET binding assay, displacement of 10mer-Thr-FAM probe from His-tagged WDR5. The protocol: The LanthaScreenTM Elite Tb-anti-HIS Antibody from ThermoFisher Scientific was used for this purpose. […] The ratio of the 520 and 495 signals are then utilized to generate a dose-response curve to calculate an IC50 value. […] WDR[…] tag protein is used at 2 nM.

The test system of test [2] is MV4:11 cells. The test is described as follows: Cellular viability / anti-proliferative activity, CellTiter-Glo, 7 day protocol. The class given is cell-based, human. To be noted: 168 h. The protocol:
Anti proliferative activity using MLL-harboring cell lines. MV4:11 cells are grown in RPMI-1640 media supplemented with 10% FBS and 1% penicillin/streptomycin. Viability assays are performed by dispensing […] into each well of an opaque 384-well plate and adding compounds at the indicated concentrations in a final volume of 32 μL and a final concentration of DMSO of 0.1% for all samples. After a set incubation period, 7 day protocol, the viability of cells in each well is assessed using the CellTiter-Glo assay (Promega), read on a GloMax 96 Microplane Luminometer (Promega). Serial dilutions of each cell type are included in all assays to generate standard curves and determine assay measurements are taken within the dynamic range of the instrument. GI50 values are calculated based on three biological replicates, each with three technical replicates. Data are expressed as mean plus/minus S.E.M.
(In ATP-based viability assays light output follows the ATP content of the culture.)

The mark [3] stands for this setting: Inhibition of WDR5 by TR-FRET assay.
[4] abbreviates: cellular proliferation of MV4:11 human cancer cell lines, 7 day.
Where [5] appears, read: Homo sapiens, MV4:11 leukemia cells after a 7 day incubation period.

Where two headings read alike, the source gives them in different places.

Ki and GI50 data for 27 compounds are collected here from US10807959B2, “WDR5-MLL1 inhibitors and modulators” (Vanderbilt University, priority 2018, dated 2020).

The Ki is the dissociation constant of the complex between target and ligand, obtained from inhibition or displacement. High values mean a looser hold on the target, low ones a stronger hold on the target. The term GI50 denotes the concentration at which growth is held to half of that of the control.

On to `Cc1cc(-c2cc(CNC3=NCCN3)cc(C(=O)NCc3ccc(Cl)c(C)c3)c2)cc(C)n1` [Example 41, N-(4-chloro-3-methylbenzyl)-3-(((4,5-dihydro-1H-imidazol-2-yl)amino)methyl)-5-(2,6-dimethylpyridin-4-yl)benzamide], for which the Ki in test [1] (setting [3]) was < 0.1 nM. The GI50 in test [2] (setting [4]) worked out at 170 nM.
Taken in the same sequence, the figures for `COc1cc(CNC(=O)c2cc(CNC3=NCCC3)cc(-c3ccc(F)cc3C)c2)cc(OC)c1` [Example 59, 5-(((3,4-Dihydro-2H-pyrrol-5-yl)amino)methyl)-N-(3,5-dimethoxybenzyl)-4′-fluoro-2′-methyl-[1,1′-biphenyl]-3-carboxamide] were 0.74 nM and 790 nM.
`O=C(NCc1ccc(Cl)c(Cl)c1)c1cc(Cn2ccnc2)cc(-c2ccc(F)cc2Cl)c1` [Example 116, 5-((1H-Imidazol-1-yl)methyl)-2′-chloro-N-(3,4-dichlorobenzyl)-4′-fluoro-[1,1′-biphenyl]-3-carboxamide] gave a GI50 in test [2] (setting [4]) of 3800 nM.
The compound `COc1cc(CNC(=O)c2cc(CNC3=NCCC3)cc(-c3ccc(F)cc3C)c2N)cc(OC)c1` [Example 168, 2-Amino-5-(((3,4-dihydro-2H-pyrrol-5-yl)amino)methyl)-N-(3,5-dimethoxybenzyl)-4′-fluoro-2′-methyl-[1,1′-biphenyl]-3-carboxamide] showed a Ki in test [1] (setting [3]) of 5.2 nM. The compound further came in with a GI50 in test [2] (setting [4]) of 4800 nM.
Taken in the same sequence, the figures for `COc1cc(CNC(=O)c2cc(CNC3=NCCC3)cc(-c3ccc(F)cc3C)c2NC(C)=O)cc(OC)c1` [Example 172, 2-Acetamido-5-(((3,4-dihydro-2H-pyrrol-5-yl)amino)methyl)-N-(3,5-dimethoxybenzyl)-4′-fluoro-2′-methyl-[1,1′-biphenyl]-3-carboxamide] were 2.1 nM and 240 nM.
On the same counts, the results for `COc1cc(OC)cc(C(C)NC(=O)c2cc(CNC3=NCCN3)cc(-c3ccc(F)nc3C)c2)c1` (stereo not drawn) [Example 7, 3-(((4,5-Dihydro-1H-imidazol-2-yl)amino)methyl)-N-(1-(3,5-dimethoxyphenyl)ethyl)-5-(6-fluoro-2-methylpyridin-3-yl)benzamide] are 0.11 nM and 280 nM.
Regarding `COc1ccnc(CNC(=O)c2cc(CNC3=NCCN3)cc(-c3ccc(F)cc3C)c2)c1` [Example B114], in test [1], the Ki was determined as 0.228 nM. Besides, the GI50 in test [2] (setting [5]) came to 701 nM.
On the same counts, the results for `Cc1cc(CNC(=O)c2cc(CNC3=NCCN3)cc(-c3cnccc3C)c2)ccc1Cl` [Example B88] are 0.115 nM and 536 nM.
`Cc1cc(CNC(=O)c2cc(CNC3=NCCC3)cc(-c3ccc(F)cc3C(F)(F)F)c2)ccc1Cl` [Example 68, N-(4-chloro-3-methylbenzyl)-5-(((3,4-dihydro-2H-pyrrol-5-yl)amino)methyl)-4′-fluoro-2′-(trifluoromethyl)-[1,1′-biphenyl]-3-carboxamide] displayed a Ki in test [1] (setting [3]) of 0.3 nM. The GI50 in test [2] (setting [4]) was 160 nM.
Turning to `Cc1cc(CNC(=O)c2cc(CNC3=NCCC3)cc(-c3ccc(F)nc3C)c2)ccc1Cl` [Example B129], the affinity in test [1] corresponds to a Ki of 0.089 nM. In test [2] (setting [5]), this compound registered a GI50 of 109 nM.
With `CCn1cc(-c2cc(CNC(=N)C3CC3)cc(C(=O)N[C@H](c3ccc(F)c(C)c3)C3CC3)c2)c(C(F)(F)F)n1` [Example 105, (S)-3-(Cyclopropanecarboximidamidomethyl)-N-(cyclopropyl(4-fluoro-3-methylphenyl)methyl)-5-(1-ethyl-3-(trifluoromethyl)-1H-pyrazol-4-yl)benzamide], in test [1] (setting [3]), the Ki is < 0.1 nM. This compound also yielded a GI50 in test [2] (setting [4]) of 10 nM.
On to `COc1cc(CNC(=O)c2ccc(F)c(CNC3=NCCN3)c2)cc(OC)c1` [Example B15, 3-(((4,5-dihydro-1H-imidazol-2-yl)amino)methyl)-N-(3,5-dimethoxybenzyl)-4-fluorobenzamide], for which the GI50 in test [2] (setting [5]) turned out to be 893 nM.
Turning to `Cc1ccnc(C(NC(=O)c2cc(CNC3=NCCC3)cc(-c3ccc(F)cc3C(F)(F)F)n2)C2CC2)c1` (stereo not drawn) [Example 90, N-(Cyclopropyl(4-methylpyridin-2-yl)methyl)-4-(((3,4-dihydro-2H-pyrrol-5-yl)amino)methyl)-6-(4-fluoro-2-(trifluoromethyl)phenyl)picolinamide], the Ki in test [1] (setting [3]) was determined as 1.2 nM. Moreover, the GI50 in test [2] (setting [4]) amounted to 750 nM.
On the same counts, the results for `COc1cc(CNC(=O)c2cc(CNC3=NCCN3)cc(-c3ccc(F)cc3C)c2NC(C)=O)cc(OC)c1` [Example 173, 2-Acetamido-5-(((4,5-dihydro-1H-imidazol-2-yl)amino)methyl)-N-(3,5-dimethoxybenzyl)-4′-fluoro-2′-methyl-[1,1′-biphenyl]-3-carboxamide] are 7.2 nM and 530 nM.
Take `COc1cc(CNC(=O)c2cc(CNC3=NCCC3)nc(-c3ccc(F)cc3C(F)(F)F)c2)cc(OC)c1` [Example 91, 2-(((3,4-dihydro-2H-pyrrol-5-yl)amino)methyl)-N-(3,5-dimethoxybenzyl)-6-(4-fluoro-2-(trifluoromethyl)phenyl)isonicotinamide]: the Ki in test [1] (setting [3]) stood at 1.6 nM. This compound displayed a GI50 in test [2] (setting [4]) of 460 nM.
In test [2] (setting [4]), `Cc1cc(F)ccc1-c1cc(Cn2ccnc2C)cc(C(=O)NCc2ccc(Cl)c(Cl)c2)n1` [Example 156, N-(3,4-dichlorobenzyl)-6-(4-fluoro-2-methylphenyl)-4-((2-methyl-1H-imidazol-1-yl)methyl)picolinamide] came in with a GI50 of 630 nM. In other words, the sub-micromolar range.
Same read-out and setting: to `Cc1cc(CNC(=O)c2cc(CNC3=NCCC3)cc(-c3ccc(F)cc3C)c2)ccc1Cl` [Example 64, N-(4-Chloro-3-methylbenzyl)-5-(((3,4-dihydro-2H-pyrrol-5-yl)amino)methyl)-4′-fluoro-2′-methyl-[1,1′-biphenyl]-3-carboxamide] belongs 280 nM.
`COc1cc(CNC(=O)c2cc(CNC3=NCCC3)cc(-c3ccc(F)nc3C)c2)cc(OC)c1` [Example 60, 3-(((3,4-Dihydro-2H-pyrrol-5-yl)amino)methyl)-N-(3,5-dimethoxybenzyl)-5-(6-fluoro-2-methylpyridin-3-yl)benzamide] showed a Ki in test [1] (setting [3]) of 0.55 nM. For the same compound, in test [2] (setting [4]), growth was halved (GI50) at 360 nM.
Compound `COc1cc(CNC(=O)c2cc(CNC3=NCCC3)cc(-c3ccnc(C)c3)c2)cc(OC)c1` [Example 57, 3-(((3,4-Dihydro-2H-pyrrol-5-yl)amino)methyl)-N-(3,5-dimethoxybenzyl)-5-(2-methylpyridin-4-yl)benzamide] registered a Ki in test [1] (setting [3]) of 3 nM. In test [2] (setting [4]), this compound displayed a GI50 of 2800 nM.
In the case of `Cc1cc(C(C)NC(=O)c2cc(CNC3=NCCC3)cc(-c3ccc(F)nc3C)c2)ncc1Cl` (stereo not drawn) [Example 54, N-(1-(5-Chloro-4-methylpyridin-2-yl)ethyl)-3-(((3,4-dihydro-2H-pyrrol-5-yl)amino)methyl)-5-(6-fluoro-2-methylpyridin-3-yl)benzamide], the Ki in test [1] (setting [3]) stood at 0.31 nM. In test [2] (setting [4]), this compound came in with a GI50 of 180 nM.
Taken in the same sequence, the figures for `Cc1cc(CNC(=O)c2cc(CNC3=NCCC3)cc(-c3cccnc3C(F)(F)F)c2)ccc1Cl` [Example 67, N-(4-Chloro-3-methylbenzyl)-3-(((3,4-dihydro-2H-pyrrol-5-yl)amino)methyl)-5-(2-(trifluoromethyl)pyridin-3-yl)benzamide] were < 0.1 nM and 50 nM.
Taken in the same sequence, the figures for `COc1cc(OC)cc(C(C)NC(=O)c2cc(Cn3ccnc3C)cc(-c3ccc(F)nc3C)n2)c1` (stereo not drawn) [Example 159, N-(1-(3,5-Dimethoxyphenyl)ethyl)-6′-fluoro-2′-methyl-4-((2-methyl-1H-imidazol-1-yl)methyl)-[2,3′-bipyridine]-6-carboxamide] were 3.9 nM and 1200 nM.
On the same counts, the results for `Cc1cc(CNC(=O)c2cc(CNC3=NC(=O)CN3C)cc(-c3ccc(F)nc3C)c2)ccc1Cl` [Example 71, N-(4-Chloro-3-methylbenzyl)-3-(6-fluoro-2-methylpyridin-3-yl)-5-(((1-methyl-4-oxo-4,5-dihydro-1H-imidazol-2-yl)amino)methyl)benzamide] are 6.6 nM and 5000 nM.
`Cc1nc(F)ccc1-c1cc(Cn2ccnc2C)cc(C(=O)NCc2ccc(Cl)c(Cl)c2)n1` [Example 164, N-(3,4-dichlorobenzyl)-6′-fluoro-2′-methyl-4-((2-methyl-1H-imidazol-1-yl)methyl)-[2,3′-bipyridine]-6-carboxamide] yielded a GI50 in test [2] (setting [4]) of 1100 nM.
Consider `COc1cc(CNC(=O)c2cc(CNC3=NCCN3)cc(-c3ccc(F)cc3C)c2N)cc(OC)c1` [Example 169, 2-Amino-5-(((4,5-dihydro-1H-imidazol-2-yl)amino)methyl)-N-(3,5-dimethoxybenzyl)-4′-fluoro-2′-methyl-[1,1′-biphenyl]-3-carboxamide], for which the inhibitory constant (Ki) in test [1] (setting [3]) was determined as 6.1 nM. Further, it took 14000 nM to inhibit growth in test [2] (setting [4]) by half (GI50).
In the case of `COc1cc(F)ccc1-c1cc(CNC2=NCCC2)cc(C(=O)NCc2ccc(Cl)c(C)c2)c1` [Example 70, N-(4-chloro-3-methylbenzyl)-5-(((3,4-dihydro-2H-pyrrol-5-yl)amino)methyl)-4′-fluoro-2′-methoxy-[1,1′-biphenyl]-3-carboxamide], the Ki in test [1] (setting [3]) was determined as 0.5 nM. This compound also had a GI50 in test [2] (setting [4]) of 460 nM.
`Cc1cnccc1-c1cc(Cn2ccnc2C)cc(C(=O)NCc2ccc(Cl)c(Cl)c2)n1` [Example 166, N-(3,4-Dichlorobenzyl)-3′-methyl-4-((2-methyl-1H-imidazol-1-yl)methyl)-[2,4′-bipyridine]-6-carboxamide]: in test [2] (setting [4]), it took 240 nM to inhibit growth by half (GI50).
